Data from patent publication US20250216399A1, “NONSPECIFIC REACTION INHIBITOR” (PHC CORPORATION, priority 2022, published 2025).
Ends that are not written are not given here. PEG 20 kDa = 20 kDa PEG attached through the N-terminal amino group; l = locked nucleic acid (LNA); {C6NH2} = Amino C6 linker; d = 2'-deoxy (DNA); r = 2'-OH (RNA); f = 2'-fluoro

Columns and labels:
human IgA = test: Reaction inhibitory effect on human IgA, Bio-Layer Interferometry (Octet R2), anti-human IgA antibody and human IgA; assay type: binding; conditions: for Response: human IgA, not added 2.1381
Description: (§1) As a model system to confirm the non-specific inhibitory effect, an anti-human IgG antibody and human IgG, or an anti-human IgA antibody and human IgA were used, and the reaction inhibitory effect on the IgG-binding peptide or the IgA-binding peptide with smaller molecular weights than antibody fragments, with or without PEG modification, was confirmed.
(§2) The measurements were performed using Bio-Layer Interferometry (BLI) using Octet(trademark) R2 (manufactured by SARTORIUS), which was a biomolecular interaction analysis system. The basic principles of the Bio-Layer Interferometry are briefly explained below. When light of a specific wavelength is projected onto a layer of biomolecules fixed on the surface of a sensor chip, the light is reflected from both the surface of the biomolecular layer and the internal reference layer, resulting in an optical interference wave. When molecules in the measurement sample bind to the biomolecules on the surface of the sensor chip, the thickness of the layer at the tip of the sensor increases, causing a wavelength shift in the interference wave. By measuring this change in wavelength shift, it is possible to quantify and kinetically analyze in real time the number of molecules that bind to the biomolecules immobilized on the sensor chip surface. In this Example, the test sample and a non-specific reaction inhibitor were allowed to coexist in the measurement sample, and human IgG or human IgA was absorbed in the sample solution. The measurements were carried out according to the operating manual attached to the OctetR2.
(§3) As an antibody solution, an anti-human IgA polyclonal rabbit antibody (manufactured by Dako) was diluted with PBS(−) to 25 μg/mL to prepare an anti-human IgA antibody solution. As a sample solution, the test sample was human IgA adjusted to 250 μg/mL in PBS(−), and to 20 μL of this test sample, the IgA-binding peptide or the IgA-binding peptide modified with 20 kDa PEG was added to a final concentration of 25 μg/mL or 50 μg/mL, respectively, and the total volume was adjusted to 200 μL to prepare the R1.
Measurements using OctetR2 were performed in the same manner as for confirming the reaction inhibitory effect on human IgG.

human IgG [1] = test: Reaction inhibitory effect of IgG-binding nucleic acid aptamer on anti-human IgG antibody and human IgG, Bio-Layer Interferometry; conditions: 0.3 mg/mL; not added 7.9093
Description: For nucleic acid aptamers, the reaction inhibitory effect with or without PEG modification was confirmed using a model system to confirm the non-specific inhibitory effect in the same manner as in Example 2.
The test sample and measurements were performed under the same assay conditions as in Example 2. In this Example, the test sample and a non-specific reaction inhibitor were allowed to coexist in the measurement sample, and human IgG was absorbed in the sample solution. The measurements were carried out according to the operating manual attached to the OctetR2.
Anti-human IgG polyclonal rabbit antibody (manufactured by Dako) was diluted with PBS(−) to 25 μg/mL to prepare an anti-human IgG antibody solution. The sample solution used was human IgG at 1 mg/mL in PBS(−), with 20 μL of this test sample, and either the IgG-binding nucleic acid aptamer or the IgG-binding nucleic acid aptamer modified with 20 kDa PEG added to a final concentration of 0.3 mg/mL, and then prepared with reaction buffer (145 mmol/L NaCl, 5.4 mmol/L KCl, 0.8 mmol/L MgCl2, 1.8 mmol/L CaCl2, 20 mmol/L Tris (pH 7.6), 0.05% Tween 20) to make a total volume of 200 μL.

human IgG [2] = test: Reaction inhibitory effect on human IgG, Bio-Layer Interferometry (Octet R2), anti-human IgG antibody and human IgG; assay type: binding; conditions: for Response: human IgG, not added 6.6462
Description: as §1, §2
as §3, with “IgG” for “IgA”, “1 mg/mL” for “250 μg/mL”, “IgG-binding” for “IgA-binding”, “first reagent (hereinafter referred to as R1) of LPIA Genesis TAT (manufactured by LSI Medience Corporation), which was a thrombin-antithrombin III complex (hereinafter referred to as TAT) measurement reagent.” for “R1.”
The sample solution and the anti-human IgG antibody solution were added to the designated wells of a 96-well black plate (manufactured by Greiner Bio-One) at 200 μL per well. To the baseline, dissociation and washing wells, 200 μL of PBS(−) was added. This plate and a biosensor (Biosensor/ProL: manufactured by SARTRIUS) were placed in the designated positions of the OctetR2. After operating the OctetR2 under the conditions shown in Table 1 below and acquiring data, the wavelength shift change (Response) was calculated using the analysis software included with the OctetR2. The measurements were carried out at a temperature of 30° C.

[3] = test system: non-specific reaction substance (IgG) of sample A, human plasma; test: Non-specific reaction inhibitory effect, Bio-Layer Interferometry, sample A (human plasma) against anti-TAT antibody; assay type: binding
Description: The measurement was carried out under the same assay conditions as described in Example 2. In this Example, sample A and a non-specific reaction inhibitor were allowed to coexist in the measurement sample, and the non-specific reaction substances were absorbed in the sample solution.
The antibody solution used was an anti-TAT antibody solution prepared by diluting the anti-TAT antibody used in the second reagent (hereinafter referred to as R2) of LPIA Genesis TAT, which was characterized by containing latex particles to which a monoclonal antibody with specific binding ability to TAT was immobilized, with PBS(−) to a concentration of 25 μg/mL. The sample solution was prepared by adding a final concentration of 25 μg/mL or 50 μg/mL of IgG-binding peptide or 20 kDa PEG-modified IgG-binding peptide as a non-specific reaction inhibitor to 20 μL of the test sample diluted 10-fold with PBS(−), and adjusting the total volume to 200 μL with R1.
Using the same assay conditions as those described in Example 3, the non-specific reaction inhibitory effects of the PEG-modified peptides described in Examples 2 and 3 and the prepared PEG-modified antibody fragment were compared. The amounts of non-specific reaction inhibitor added were 25 μg/mL, 50 μg/mL, 100 μg/mL, 200 μg/mL, or 400 μg/mL, and the test sample was the same as sample A in Example 3.
The assay was carried out under the same conditions as described in Example 3. As non-specific reaction inhibitors, sample solutions were prepared to which PEG-modified peptides chemically modified with 5 kDa, 10 kDa, 20 kDa, and 30 kDa PEG were added, and the non-specific reaction inhibitory effect of each was confirmed. The amounts of non-specific reaction inhibitors added were 5 μg/mL, 10 μg/mL, or 20 μg/mL, and the test sample was the same as Sample A in Examples 3 and 4.

[4] = test system: non-specific reaction substances of sample A, human plasma; test: Non-specific inhibitory effect in latex agglutination method on automatic analyzer STACIA (LPIA Genesis TAT)
Description: The non-specific inhibitory effect of the IgG-binding peptide and PEG-modified IgG-binding peptide used in Example 2 was confirmed by the latex agglutination method.
The measurements were performed using automated operation of an automatic analyzer, STACIA (manufactured by LSI Medience Corporation). In the STACIA measurement, two main operations were carried out. In the first operation, the sample to be measured was diluted with R1 and heated at 37° C. for 3.5 minutes. In the second operation, R2 was added to the reaction solution and the mixture was incubated at 37° C. for 6 minutes to induce latex agglutination. By optically monitoring the agglutination reaction, the amount of TAT or non-specific reaction substances in the samples to be measured was quantified. In this Example, the non-specific reaction inhibitor was added to R1 so that the concentration after sample addition was 0.05 mg/mL or 0.1 mg/mL, and non-specific reaction substances were absorbed during the first operation. […] The mixture ratio of the measurement sample, R1, and R2 was 20 μL:90 μL:90 μL. Latex agglutination was detected at a wavelength of 700 nm. The measured values were calculated by comparing the absorbance with a calibration curve obtained by measuring TAT of known concentrations. The test sample used was the same as sample A used in Examples 3 to 5.

[5] = test system: human IgG (polyclonal immunoglobulin G) (Homo sapiens); test: BLI; conditions: upper case RNA, lower case DNA; 2'-F at U6, U9, C20, U21; LNA at A18; 5' amino C6 linker conjugated to 20 kDa PEG (Jenkem ME); response of IgG on immobilised anti-human IgG antibody with 0.3 mg/mL PEG-aptamer (7.9093 nm without inhibitor); indirect, inhibition of IgG-antibody reaction …
human IgA (human) [6] = test: BLI (Octet R2) competition: human IgA on immobilised anti-human IgA antibody with 25 µg/mL of the peptide
human IgA (human) [7] = test: BLI (Octet R2) competition: human IgA on immobilised anti-human IgA antibody with 50 µg/mL of the peptide
[8] = amount added 25 μg/mL, not added 5.7733
[9] = amount added 50 μg/mL, not added 5.7733
[10] = amount added 0.05 mg/mL, not added 32.01
[11] = amount added 0.1 mg/mL, not added 27.17

Molecule: IgA-binding peptide: human IgA-binding peptide of approximately 1.8 kDa, amino acid sequence HMVCLSYRGRPVCFSL (SEQ ID NO: 2), reported for purification of human IgA [reference compound]
- Response (human IgA; amount added 25 μg/mL): 2.1805 nm
- Response (human IgA; amount added 50 μg/mL): 2.2263 nm

Molecule: IgG-binding nucleic acid aptamer: human IgG-binding nucleic acid aptamer of approximately 7.5 kDa, N(6)_ggAGGU(F)GcU(F)ccgaaaGGA(L)aC(F)U(F)cc (DNA GGAGGUGCUCCGAAAGGAACUCC; sugars from the 5' end ddrrrfrdfddddddrrldffdd, 5' {C6NH2}, backbone and methylation of C not given here; further chemistry not fully specified)
- Human IgG (Response) (human IgG [1]): 7.6691 nm

Molecule: IgG-binding peptide: human IgG-binding peptide of approximately 1.5 kDa, amino acid sequence DCAWHLGELVWCT (SEQ ID NO: 1), known for purification of human IgG (human IgG binding peptide) [reference compound]
- Response (human IgG [2]; amount added 25 μg/mL): 7.4221 nm
- Response (human IgG [2]; amount added 50 μg/mL): 7.6293 nm
- Response [3, 8]: 6.5522 nm
- Response [3, 9]: 6.6331 nm
- Sample A measured value (TAT calibration curve) [4, 10]: 37.7 ng/mL
- Sample A measured value (TAT calibration curve) [4, 11]: 42.85 ng/mL

Molecule: PEG-modified IgG-binding peptide: IgG-binding peptide (SEQ ID NO: 1) with one molecule of 20 kDa PEG attached via the N-terminal amino group ({PEG 20 kDa}-DCAWHLGELVWCT; cysteine pairing not given here)
- Response (human IgG [2]; amount added 25 μg/mL): 3.1484 nm
- Response (human IgG [2]; amount added 50 μg/mL): 2.6181 nm
- reaction inhibitory effect compared with the unmodified peptide (human IgG [2]; anti-human IgG antibody and human IgG): stronger reaction inhibitory effect
- effect in suppressing the non-specific reaction compared with the unmodified peptide [3]: greater effect in suppressing the non-specific reaction than the unmodified peptide
- effect on inhibiting non-specific reactions compared with PEG-modified antibody fragment ([3]; added in equal amounts): greater effect on inhibiting non-specific reactions than the PEG-modified antibody fragment
- Response ([3]; amount added 5 μg/mL, not added 6.0114): 5.5469 nm
- Response ([3]; amount added 10 μg/mL, not added 6.0114): 5.0054 nm
- Response ([3]; amount added 20 μg/mL, not added 6.0114): 3.8339 nm
- Response [3, 8]: 3.0487 nm
- Response [3, 9]: 2.9829 nm
- Response ([3]; amount added 100 μg/mL, not added 5.7733): 3.1926 nm
- Response ([3]; amount added 200 μg/mL, not added 6.0744): 2.8092 nm
- Response ([3]; amount added 400 μg/mL, not added 6.0744): 3.0917 nm
- Sample A measured value (TAT calibration curve) [4, 10]: 10.84 ng/mL
- Sample A measured value (TAT calibration curve) [4, 11]: 6.25 ng/mL

Molecule: PEG-modified IgA-binding peptide: IgA-binding peptide (SEQ ID NO: 2) with one molecule of 20 kDa PEG attached via the N-terminal amino group
- Response (human IgA; amount added 25 μg/mL): 1.6061 nm
- Response (human IgA; amount added 50 μg/mL): 1.5374 nm
- reaction inhibitory effect compared with the unmodified peptide (human IgA; anti-human IgA antibody and human IgA): stronger reaction inhibitory effect

Molecule: GGAGGUGCUCCGAAAGGAACUCC [PEG-modified IgG-binding nucleic acid aptamer]
- activity [5]: 4.96 nm

Molecule: HMVCLSYRGRPVCFSL [human IgA-binding peptide of approximately 1.8 kDa]
- Response [nm] (human IgA (human) [6]): 2.18 nm
- Response [nm] (human IgA (human) [7]): 2.23 nm

B1: IgA-binding peptide modified with 20 kDa PEG (peptide)
peptide: HMVCLSYRGRPVCFSL
modifications: one molecule of 20 kDa PEG (succinimide-activated) attached via the amino group at the N-terminus
- Response [nm] (human IgA (human) [6]): 1.61 nm
- Response [nm] (human IgA (human) [7]): 1.54 nm
